Measurements: patent US20040253190A1, “Breath Freshening and Oral Cleansing Product Using Citral” (priority 2002, published 2004)
Values after ≈ are worked out from the molar mass of the structure shown.

What was measured:
Format in all cases: cell-based
Fusobacterium nucleatum [1] = experiment: MIC (Minimum Inhibitory Concentration) study, 96 well microtiter plate; conditions: F. nucleatum, 5×10^5 CFU/ml, 37° C., turbidity at 660 nm after 48 hours
Protocol: (§1) In vitro tests were conducted with a gram positive supragingival plaque bacterium, Streptococcus mutans. In addition, two subgingival plaque bacteria associated with oral malodor were tested, Porphyromonas gingivalis and Fusobacterium nucleatum. The MIC (Minimum Inhibitory Concentrations) study protocol is as follows. Chlorhexidine was used as a positive control and sterile water was used as a negative control. Citral was suspended in 10% methanol with 3.8% Tween 80. […] 96 well microtiter plates were used for this study. Each well contained 5×10^5 colony forming units/ml of bacteria, serially diluted agents and bacterial growth medium. All bacterial cultures were incubated at 37° C. and stationary. Bacterial growth was estimated spectrophotometrically at 660 nm, after 48 hours. The MIC for each test bacteria was defined as the minimum concentration of test compound limiting turbidity to<absorbance at 660 nm.

Porphyromonas gingivalis [2] = experiment: as above; conditions: P. gingivalis, 5×10^5 CFU/ml, 37° C., turbidity at 660 nm after 48 hours
Protocol: as §1

Fusobacterium nucleatum [3] = experiment: MBC (Minimum bactericidal concentration), plating on blood agar; conditions: F. nucleatum, lowest concentration killing at least 99.9% of initial inoculum, plates 48 hours at 37° C.
Protocol: as §1, with “[…]. The MBC (Minimum bactericidal concentrations) were determined using the 96 well microtiter plate serial dilutions as described above for MIC studies. Serial dilution of cultures in wells showing no visible growth were performed and 10 microliters of culture were plated in triplicate on blood agar plates. Viable colonies were scored after incubation of the plates for 48 hours at 37° C. For each test bacterium, the number of CFU/ml were determined in the initial inoculum. The MBC was defined as the lowest concentration of a test compound that killed at least 99.9% of the cells present in the initial inoculum.” for “nm.”

Porphyromonas gingivalis [4] = experiment: as above; conditions: P. gingivalis, lowest concentration killing at least 99.9% of initial inoculum, plates 48 hours at 37° C.
Protocol: as §1, with “[…]. The MBC (Minimum bactericidal concentrations) were determined using the 96 well microtiter plate serial dilutions as described above for MIC studies. Serial dilution of cultures in wells showing no visible growth were performed and 10 microliters of culture were plated in triplicate on blood agar plates. Viable colonies were scored after incubation of the plates for 48 hours at 37° C. For each test bacterium, the number of CFU/ml were determined in the initial inoculum. The MBC was defined as the lowest concentration of a test compound that killed at least 99.9% of the cells present in the initial inoculum.” for “nm.”

Streptococcus mutans = experiment: MIC (Minimum Inhibitory Concentration) study, 96 well microtiter plate; conditions: S. mutans, 5×10^5 CFU/ml, 37° C., turbidity at 660 nm after 48 hours
Protocol: as §1

| MIC (Fusobacterium nucleatum [1]) | MIC (Porphyromonas gingivalis [2]) | MIC (Streptococcus mutans) | SMILES | MBC (Fusobacterium nucleatum [3]) | MBC (Porphyromonas gingivalis [4]) |
| --- | --- | --- | --- | --- | --- |
| 1.25 µg/mL (≈ 2.47 µM) | 1.25 µg/mL (≈ 2.47 µM) | – | [H]/N=C(\N/C(=N/[H])NCCCCCCNC(=N)NC(=N)Nc1ccc(Cl)cc1)Nc1ccc(Cl)cc1 [Cholorhexidine, Chlorhexidine, reference compound] | 1.25 µg/mL (≈ 2.47 µM) | 1.25 µg/mL (≈ 2.47 µM) |
| 15.6 µg/mL (≈ 102 µM) | 62.5 µg/mL (≈ 411 µM) | 500 µg/mL (≈ 3280 µM) | CC(C)=CCCC(C)=CC=O [citral] | 31.3 µg/mL (≈ 206 µM) | 125 µg/mL (≈ 821 µM) |
